Tests used:
velvetleaf = assay: Test C pre-/postemergence herbicide test; format: in vivo, Abutilon theophrasti
In short: (§1)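 Test compounds, formulated in a surfactant-containing non-phytotoxic solvent blend, are applied to seeded loam/sand soil (preemergence) and to young plants at the 1- to 4-leaf stage in peat-based medium (postemergence). Plants stay 13 to 15 days under greenhouse conditions, then are scored visually relative to controls, 0 = no effect, 100 = complete control.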

pigweed [1] = assay: Test C pre-/postemergence herbicide test; format: in vivo, Amaranthus retroflexus
In short: as §1

wheat = assay: Test A pre-/postemergence herbicide test; format: in vivo, Triticum aestivum; conditions: Postemergence
In short: (§2)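 Planted in loam–sand blend; treated the same day preemergence by directed soil spray, while separately grown plants at one- to two-leaf stage got postemergence spray. Compared visually with untreated controls after approximately 10 days; 100 means complete control.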

pigweed [2] = assay: Test A pre-/postemergence herbicide test; format: in vivo, Amaranthus retroflexus
In short: as §2

foxtail, giant = assay: Test C pre-/postemergence herbicide test; format: in vivo, Setaria faberii
In short: as §1

lambsquarters = assay: Test C pre-/postemergence herbicide test; format: in vivo, Chenopodium album
In short: as §1

galium = assay: Test C pre-/postemergence herbicide test; format: in vivo, Galium aparine
In short: as §1

nutsedge, yellow = assay: Test C pre-/postemergence herbicide test; format: in vivo, Cyperus esculentus
In short: as §1

corn = assay: Test C pre-/postemergence herbicide test; format: in vivo, Zea mays
In short: as §1

waterhemp = assay: Test C pre-/postemergence herbicide test; format: in vivo, Amaranthus rudis
In short: as §1

johnsongrass = assay: Test C pre-/postemergence herbicide test; format: in vivo, Sorghum halepense
In short: as §1

oilseed rape = assay: Test C pre-/postemergence herbicide test; format: in vivo, Brassica napus
In short: as §1

[3] = Postemergence, 31 g ai/ha, scale 0 to 100 (0 no effect, 100 complete control)
[4] = Postemergence, 62 g ai/ha, scale 0 (no effect) to 100 (complete control)
[5] = Postemergence, 125 g ai/ha, scale 0 to 100 (0 no effect, 100 complete control)
[6] = Postemergence, 250 g ai/ha, scale 0 to 100 (0 no effect, 100 complete control)
[7] = Preemergence, 31 g ai/ha, scale 0 to 100, 0 is no effect and 100 is complete control
[8] = Preemergence, 62 g ai/ha, scale 0 to 100 (0 no effect, 100 complete control)
[9] = Preemergence, 125 g ai/ha, scale 0 to 100 (0 no effect, 100 complete control)

In the case of `CN1CC(c2ccc(F)c(F)c2)C(C(=O)Nc2ccccc2F)C1=O` (centres unmarked) [Compound 302], the “Plant response rating, Velvetleaf” value (velvetleaf; [3]) is reported as 0, the “Plant response rating, Velvetleaf” value (velvetleaf; [4]) is reported as 0 and the “Plant response rating, Velvetleaf” value (velvetleaf; [5]) is reported as 0. The “Plant response rating, Velvetleaf” value (velvetleaf; [6]) was 20, the “Velvetleaf plant response rating” value (velvetleaf; [7]) was 0 and the “Velvetleaf plant response rating” value (velvetleaf; [8]) was 0. The “Plant response rating, Velvetleaf” value (velvetleaf; [9]) was 0, the “Plant response rating (scale of 0 to 100), Velvetleaf” value (velvetleaf; Preemergence, 250 g ai/ha) was 0 and the “Plant response rating, Pigweed” value (pigweed [1]; [3]) was 15. For the same compound, the “Plant response rating, Pigweed” value (pigweed [1]; [4]) was 20, the “Plant response rating, Pigweed” value (pigweed [1]; [5]) was 20 and the “Plant response rating, Pigweed” value (pigweed [1]; [6]) was 30. The “Pigweed plant response rating” value (pigweed [1]; [7]) was 0, the “Pigweed plant response rating” value (pigweed [1]; [8]) was 20 and the “Plant response rating, Pigweed” value (pigweed [1]; [9]) was 25. The “Plant response rating (scale of 0 to 100), Pigweed” value (pigweed [1]; Preemergence, 250 g ai/ha) was 0, the “Plant response rating, Wheat” value (wheat; 125 g ai/ha, visual rating on 0 to 100 scale (0 no effect, 100 complete control), approx. 10 days) was 0 and the “Plant response rating, Wheat” value (wheat; 500 g ai/ha, 0 to 100 scale (0 no effect, 100 complete control)) was 50. For the same compound, the “Plant response rating, Pigweed” value (pigweed [2]; Postemergence, 125 g ai/ha, visual rating on 0 to 100 scale (0 no effect, 100 complete control), approx. 10 days) was 0, the “Plant response rating, Pigweed” value (pigweed [2]; Postemergence, 500 g ai/ha, 0 to 100 scale (0 no effect, 100 complete control)) was 10 and the “Plant response rating, Pigweed” value (pigweed [2]; Preemergence, 125 g ai/ha, 0 to 100 scale where 0 is no effect and 100 is complete control) was 10. For the same compound, the “Pigweed plant response rating” value (pigweed [2]; Preemergence, 500 g ai/ha, visual rating on 0 to 100 scale (0 no effect, 100 complete control)) was 60, the “Plant response rating, Foxtail, Giant” value (foxtail, giant; [3]) was 0 and the “Plant response rating, Foxtail, Giant” value (foxtail, giant; [4]) was 45. For the same compound, the “Plant response rating, Foxtail, Giant” value (foxtail, giant; [5]) was 80, the “Plant response rating, Foxtail, Giant” value (foxtail, giant; [6]) was 80 and the “Foxtail, Giant plant response rating” value (foxtail, giant; [7]) was 90. For the same compound, the “Foxtail, Giant plant response rating” value (foxtail, giant; [8]) was 95, the “Plant response rating, Foxtail, Giant” value (foxtail, giant; [9]) was 100 and the “Plant response rating (scale of 0 to 100), Foxtail, Giant” value (foxtail, giant; Preemergence, 250 g ai/ha) was 100. The “Plant response rating, Lambsquarters” value (lambsquarters; [3]) was 10, the “Plant response rating, Lambsquarters” value (lambsquarters; [4]) was 20 and the “Plant response rating, Lambsquarters” value (lambsquarters; [5]) was 60. For the same compound, the “Plant response rating, Lambsquarters” value (lambsquarters; [6]) was 70, the “Lambsquarters plant response rating” value (lambsquarters; [7]) was 0 and the “Lambsquarters plant response rating” value (lambsquarters; [8]) was 0. The “Plant response rating, Lambsquarters” value (lambsquarters; [9]) was 60, the “Plant response rating (scale of 0 to 100), Lambsquarters” value (lambsquarters; Preemergence, 250 g ai/ha) was 65 and the “Plant response rating, Galium” value (galium; [3]) was 10. For the same compound, the “Plant response rating, Galium” value (galium; [4]) was 15, the “Plant response rating, Galium” value (galium; [5]) was 10 and the “Plant response rating, Galium” value (galium; [6]) was 45. The “Galium plant response rating” value (galium; [7]) was 0, the “Galium plant response rating” value (galium; [8]) was 5 and the “Plant response rating, Galium” value (galium; [9]) was 85. For the same compound, the “Plant response rating (scale of 0 to 100), Galium” value (galium; Preemergence, 250 g ai/ha) was 85, the “Plant response rating, Nutsedge, Yellow” value (nutsedge, yellow; [3]) was 0 and the “Plant response rating, Nutsedge, Yellow” value (nutsedge, yellow; [4]) was 0. The “Plant response rating, Nutsedge, Yellow” value (nutsedge, yellow; [5]) was 0, the “Plant response rating, Nutsedge, Yellow” value (nutsedge, yellow; [6]) was 20 and the “Nutsedge, Yellow plant response rating” value (nutsedge, yellow; [7]) was 0. For the same compound, the “Nutsedge, Yellow plant response rating” value (nutsedge, yellow; [8]) was 0, the “Plant response rating, Nutsedge, Yellow” value (nutsedge, yellow; [9]) was 0 and the “Plant response rating (scale of 0 to 100), Nutsedge, Yellow” value (nutsedge, yellow; Preemergence, 250 g ai/ha) was 10. For the same compound, the “Plant response rating, Corn” value (corn; [3]) was 0, the “Plant response rating, Corn” value (corn; [4]) was 0 and the “Plant response rating, Corn” value (corn; [5]) was 0. For the same compound, the “Plant response rating, Corn” value (corn; [6]) was 0, the “Corn plant response rating” value (corn; [7]) was 0 and the “Corn plant response rating” value (corn; [8]) was 0. For the same compound, the “Plant response rating, Corn” value (corn; [9]) was 0, the “Plant response rating (scale of 0 to 100), Corn” value (corn; Preemergence, 250 g ai/ha) was 50 and the “Plant response rating, Waterhemp” value (waterhemp; [3]) was 10. For the same compound, the “Plant response rating, Waterhemp” value (waterhemp; [4]) was 20, the “Plant response rating, Waterhemp” value (waterhemp; [5]) was 20 and the “Plant response rating, Waterhemp” value (waterhemp; [6]) was 25. For the same compound, the “Waterhemp plant response rating” value (waterhemp; [7]) was 30, the “Waterhemp plant response rating” value (waterhemp; [8]) was 35 and the “Plant response rating, Waterhemp” value (waterhemp; [9]) was 65. For the same compound, the “Plant response rating (scale of 0 to 100), Waterhemp” value (waterhemp; Preemergence, 250 g ai/ha) was 55, the “Plant response rating, Johnsongrass” value (johnsongrass; [3]) was 0 and the “Plant response rating, Johnsongrass” value (johnsongrass; [4]) was 0. For the same compound, the “Plant response rating, Johnsongrass” value (johnsongrass; [5]) was 0, the “Plant response rating, Johnsongrass” value (johnsongrass; [6]) was 10 and the “Johnsongrass plant response rating” value (johnsongrass; [7]) was 0. The “Johnsongrass plant response rating” value (johnsongrass; [8]) was 15, the “Plant response rating, Johnsongrass” value (johnsongrass; [9]) was 45 and the “Plant response rating (scale of 0 to 100), Johnsongrass” value (johnsongrass; Preemergence, 250 g ai/ha) was 65. The “Plant response rating, Oilseed Rape” value (oilseed rape; [3]) was 0, the “Plant response rating, Oilseed Rape” value (oilseed rape; [4]) was 0 and the “Plant response rating, Oilseed Rape” value (oilseed rape; [5]) was 40. The “Plant response rating, Oilseed Rape” value (oilseed rape; [6]) was 0, the “Oilseed Rape plant response rating” value (oilseed rape; [7]) was 0 and the “Oilseed Rape plant response rating” value (oilseed rape; [8]) was 0. For the same compound, the “Plant response rating, Oilseed Rape” value (oilseed rape; [9]) was 0 and the “Plant response rating (scale of 0 to 100), Oilseed Rape” value (oilseed rape; Preemergence, 250 g ai/ha) was 10.
